29 compounds from patent US20120122870A1, “Treatment Of Ischemia-Reperfusion Injury” (MUSC FOUNDATION FOR RESEARCH DEVELOPMENT, priority 2009, published 2012) can be followed below.

Assay [1] relates to endogenous SK activity in MDA-MB-231 cells. The experiment in a line: Cellular S1P production (endogenous SK activity) in MDA-MB-231 cells. In kind it is cell-based. As to conditions: Homo sapiens, MDA-MB-231, MDA-MB-231 cells incubated with 20 μg/mL of compound; percentage of S1P production inhibited. Here is the method: (§1) Human SK was incubated with 6 μg/mL of the indicated compounds, and then assayed for activity as described above. Values in the column labeled “Recombinant SK (% inhibition)” represent the percentage of SK activity that was inhibited. MDA-MB-231 cells were incubated with 20 μg/mL of the indicated compounds and then assayed for endogenous SK activity as indicated above. Values in the column labeled “Cellular S1P (% inhibition)” represent the percentage of S1P production that was inhibited. Additionally, MDA-MB-231 cells were treated with varying concentration of certain compounds and the amount of S1P produced by the cells was determined. Values in the column labeled “Cellular S1P IC50 (μM)” represent the concentration of compound required to inhibit the production of S1P by 50%. ND=not determined.

A further assay concerns the target T1, recombinant human SK (Homo sapiens, UniProt Q9NYA1).
T1 construct: GST (glutathione-S-transferase) (N); made in house; host or cells: bacteria (pGEX bacterial expression vector)
As to the kind of experiment: Recombinant human SK activity assay ([3H]sphingosine to [3H]S1P). In kind it is biochemical. As to conditions: Human SK incubated with 6 μg/mL of compound; percentage of SK activity inhibited. Here is the method:
SK activity is measured by incubation of the recombinant SK with [^3H]sphingosine and 1 mM ATP under defined conditions, followed by extraction of the assay mixture with chloroform:methanol under basic conditions. […] Radioactivity in aliquots of the aqueous phase is then quantified as a measure of [^3H]S1P formation.
as §1

T1 sequence (Q9NYA1 whole entry): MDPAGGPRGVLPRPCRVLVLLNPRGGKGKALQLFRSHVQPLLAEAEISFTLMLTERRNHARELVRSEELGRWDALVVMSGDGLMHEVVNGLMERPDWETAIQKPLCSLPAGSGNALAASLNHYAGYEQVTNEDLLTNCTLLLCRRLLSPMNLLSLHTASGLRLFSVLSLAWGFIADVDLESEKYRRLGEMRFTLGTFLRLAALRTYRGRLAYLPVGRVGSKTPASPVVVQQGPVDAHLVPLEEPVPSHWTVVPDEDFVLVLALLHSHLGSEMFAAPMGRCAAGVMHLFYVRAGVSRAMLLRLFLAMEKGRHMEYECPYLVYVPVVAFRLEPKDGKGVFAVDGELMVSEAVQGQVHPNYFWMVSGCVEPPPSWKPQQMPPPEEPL

On to `CC(C)NC(=O)C12CC3CC(C1)CC(c1ccc(Cl)cc1)(C3)C2` [A1, 3-(4-Chloro-phenyl)-adamantane-1-carboxylic acid isopropylamide], for which, in assay [1], testing at 20 µg/mL gave an inhibition of 0%. For the same compound, the inhibition (in general, the percentage by which the read-out fell short of the control) at 6 µg/mL on recombinant human SK worked out at 38%.

As for `O=C(NCCc1ccc(Oc2ccccc2)cc1)C12CC3CC(C1)CC(c1ccc(Cl)cc1)(C3)C2` [A47, 3-(4-Chloro-phenyl)-adamantane-1-carboxylic acid [2-(4-phenoxy-phenyl)-ethyl]-amide], the inhibition at 6 µg/mL on recombinant human SK amounted to 26%. On the same count and under the same terms, the same measure for `O=C(NCc1ccc(-c2ccccc2)cc1)C12CC3CC(C1)CC(c1ccc(Cl)cc1)(C3)C2` [A49, 3-(4-Chloro-phenyl)-adamantane-1-carboxylic acid (biphenyl-4-ylmethyl)-amide]: 33%.

As for `CC(C)(C)NCCCNC(=O)C12CC3CC(C1)CC(c1ccc(Cl)cc1)(C3)C2` [A53, 3-(4-Chloro-phenyl)-adamantane-1-carboxylic acid (3-tert-butylamino-propyl)-amide], the inhibition at 6 µg/mL at recombinant human SK came to 52%. On the same count and under the same terms, the same measure for `O=C(NCCCN1CCCC1)C12CC3CC(C1)CC(c1ccc(Cl)cc1)(C3)C2` [A54, 3-(4-Chloro-phenyl)-adamantane-1-carboxylic acid (3-pyrrolidin-1-yl-propyl)-amide]: 95%; for `O=C1CCCN1CCCNC(=O)C12CC3CC(C1)CC(c1ccc(Cl)cc1)(C3)C2` [A55, 3-(4-Chloro-phenyl)-adamantane-1-carboxylic acid [3-(2-oxo-pyrrolidin-1-yl)-propyl]-amide]: 8%. On the same count and under the same terms, the same measure for `O=C(NCCN1CCNCC1)C12CC3CC(C1)CC(c1ccc(Cl)cc1)(C3)C2` [A59, 3-(4-Chloro-phenyl)-adamantane-1-carboxylic acid (2-piperazin-1-yl-ethyl)-amide]: 0%; for `O=C(NCCCn1ccnc1)C12CC3CC(C1)CC(c1ccc(Cl)cc1)(C3)C2` [A65, 3-(4-Chloro-phenyl)-adamantane-1-carboxylic acid (3-imidazol-1-yl-propyl)-amide]: 3%.

With `O=C(Nc1nnn[nH]1)C12CC3CC(C1)CC(c1ccc(Cl)cc1)(C3)C2` [A67, 3-(4-Chloro-phenyl)-adamantane-1-carboxylic acid (1H-tetrazol-5-yl)-amide], the inhibition at 6 µg/mL on recombinant human SK stood at 10%. The same measure, in the same setting: the same measure for `O=C(Nc1ncnc2[nH]cnc12)C12CC3CC(C1)CC(c1ccc(Cl)cc1)(C3)C2` [A73, 3-(4-Chloro-phenyl)-adamantane-1-carboxylic acid (9H-purin-6-yl)-amide]: 53%. Still for that read-out and setting: the same measure for `FC(F)(F)c1ccc(CNCC23CC4CC(C2)CC(c2ccc(Cl)cc2)(C4)C3)cc1` [A77, [3-(4-Chloro-phenyl)-adamantan-1-ylmethyl]-(4-trifluoromethyl-benzyl)-amine]: 27%; for `Fc1cc(C(F)(F)F)ccc1CNCC12CC3CC(C1)CC(c1ccc(Cl)cc1)(C3)C2` [A78, [3-(4-Chloro-phenyl)-adamantan-1-ylmethyl]-(2-fluoro-4-trifluoromethyl-benzyl)-amine]: 43%; for `Fc1ccc(CNCC23CC4CC(C2)CC(c2ccc(Cl)cc2)(C4)C3)cc1C(F)(F)F` [A79, [3-(4-Chloro-phenyl)-adamantan-1-ylmethyl]-(4-fluoro-3-trifluoromethyl-benzyl)-amine]: 19%. Same read-out and setting: the same measure for `FC(F)(F)Oc1ccc(CNCC23CC4CC(C2)CC(c2ccc(Cl)cc2)(C4)C3)cc1` [A80, [3-(4-Chloro-phenyl)-adamantan-1-ylmethyl]-(4-trifluoromethoxy-benzyl)-amine]: 5%; for `Clc1ccc(C23CC4CC(CC(CNCCc5cccc(Oc6ccccc6)c5)(C4)C2)C3)cc1` [A81, [3-(4-Chloro-phenyl)-adamantan-1-ylmethyl]-[2-(3-phenoxy-phenyl)-ethyl]-amine]: 67%. As for `CN1CCC(NCC23CC4CC(C2)CC(c2ccc(Cl)cc2)(C4)C3)CC1` [A82, [3-(4-Chloro-phenyl)-adamantan-1-ylmethyl]-(1-methyl-piperidin-4-yl)-amine], the inhibition at 6 µg/mL at recombinant human SK stood at 75%. On the same count and under the same terms, the same measure for `CC(C)(C)NCCCNCC12CC3CC(C1)CC(c1ccc(Cl)cc1)(C3)C2` [A84, N-tert-Butyl-N′-[3-(4-chloro-phenyl)-adamantan-1-ylmethyl]-propane-1,3-diamine]: 84%. The same measure, in the same setting: the same measure for `Clc1ccc(C23CC4CC(CC(CNCCCN5CCCC5)(C4)C2)C3)cc1` [A85, [3-(4-Chloro-phenyl)-adamantan-1-ylmethyl]-(3-pyrrolidin-1-yl-propyl)-amine]: 0%; for `CN1CCCC1CCNCC12CC3CC(C1)CC(c1ccc(Cl)cc1)(C3)C2` (stereo not drawn) [A86, [3-(4-Chloro-phenyl)-adamantan-1-ylmethyl]-[2-(1-methyl-pyrrolidin-2-yl)-ethyl]-amine]: 6%; for `Clc1ccc(C23CC4CC(CC(CNCc5ccncc5)(C4)C2)C3)cc1` [A88, [3-(4-Chloro-phenyl)-adamantan-1-ylmethyl]-pyridin-4-ylmethyl-amine]: 1%. On the same count and under the same terms, the same measure for `CC(Nc1ccccc1)C12CC3CC(CC(c4ccccc4)(C3)C1)C2` (stereo not drawn) [A93, Phenyl-[1-(3-phenyl-adamantan-1-yl)-ethyl]-amine]: 70%.

In the case of `CC(NC1CCN(C)CC1)C12CC3CC(CC(C3)C1)C2` (stereo not drawn) [A104, (1-Adamantan-1-yl-ethyl)-(1-methyl-piperidin-4-yl)-amine], on recombinant human SK, the inhibition at 6 µg/mL worked out at 0%. On the same count and under the same terms, the same measure for `O=C(/C=C/c1ccc(Cl)cc1)C12CC3CC(C1)CC(c1ccc(Cl)cc1)(C3)C2` [A130, 3-(4-Chloro-phenyl)-1-[3-(4-chloro-phenyl)-adamantan-1-yl]-propenone]: 38%. As for `N#Cc1ccc(/C=C/C(=O)C23CC4CC(C2)CC(c2ccc(Cl)cc2)(C4)C3)cc1` [A131, 4-{3-[3-(4-Chloro-phenyl)-adamantan-1-yl]-3-oxo-propenyl}-benzonitrile], on recombinant human SK, the inhibition at 6 µg/mL stood at 41%. Consider `O=C(/C=C/c1ccc(O)cc1)C12CC3CC(C1)CC(c1ccc(Cl)cc1)(C3)C2` [A132, 1-[3-(4-Chloro-phenyl)-adamantan-1-yl]-3-(4-hydroxy-phenyl)-propenone], for which, at recombinant human SK, the inhibition at 6 µg/mL worked out at 8%. The same measure, in the same setting: the same measure for `O=C(/C=C/c1ccc2ccccc2c1)C12CC3CC(C1)CC(c1ccc(Cl)cc1)(C3)C2` [A133, 1-[3-(4-Chloro-phenyl)-adamantan-1-yl]-3-naphthalen-2-yl-propenone]: 36%; for `O=C(/C=C/c1ccc(Cl)nc1)C12CC3CC(C1)CC(c1ccc(Cl)cc1)(C3)C2` [A134, 1-[3-(4-Chloro-phenyl)-adamantan-1-yl]-3-(6-chloro-pyridin-3-yl)-propenone]: 52%.

For `O=C(/C=C/c1cnc[nH]1)C12CC3CC(C1)CC(c1ccc(Cl)cc1)(C3)C2` [A135, 1-[3-(4-Chloro-phenyl)-adamantan-1-yl]-3-(1H-imidazol-4-yl)-propenone], the inhibition at 6 µg/mL on recombinant human SK came out at 64%.

As for `O=C(NCCCN1CCCC1)c1nc(-c2ccc(Cl)cc2)cs1` [B59, 4-(4-Chloro-phenyl)-thiazole-2-carboxylic acid (3-pyrrrolidin-1-yl-propyl)-amide], the “Recombinant SK (% inhibition)” value on recombinant human SK came out at 46%.
